In US8563522B2, “Method of maintaining and/or attenuating a decline in quality of life” (The IAMS Company, priority 1997, dated 2013):

What was measured:
[1] = tested on: hexokinase; conditions: cited from earlier work
[2] = tested on: isolated rat hepatocytes; conditions: cited from earlier work
[3] = tested on: glucose metabolism; conditions: rodents, long-term, lower dose; cited from earlier work
[4] = tested on: utilization of glucose as an energy source; conditions: cited from earlier work
[5] = injected into a rat; cited from earlier work
[6] = Mice fed a composition containing mannoheptulose; format: in vivo
[7] = Pharmacokinetics, once daily mannoheptulose in composition fed to adult Labrador Retrievers; format: in vivo, Labrador Retriever dogs
Experimental: The pharmacokinetics of mannoheptulose can be determined in six adult, male Labrador Retriever dogs fed a nutritionally-balanced composition providing mannoheptulose at levels of 0, 1 or 2 mg/kg of body weight of the dog. Mannoheptulose is provided as an enriched source of avocado extract in the 1 and 2 mg/kg diets. The mean age of the dogs is 4.2 years and the age ranges from 3.3 to 6.1 years. The average body weight of all dogs is 33 kg and the body weight ranges from 28 to 36 kg. Dogs are adapted for 14 days to a nutritionally-balanced control composition (Eukanuba Senior Maintenance Formula) containing no mannoheptulose, avocado extract or avocado meal (0 mg/kg mannoheptulose). The two compositions containing mannoheptulose are the nutritionally-balanced control composition formulated with avocado extract to provide a mannoheptulose dose of 1 or 2 mg/kg of body weight when fed to a dog. […] Pharmacokinetics of mannoheptulose following once daily administration of mannoheptulose in a nutritionally-balanced composition is determined by collecting serial blood samples (3 mL) from each dog on day 9 using a Vacutainer blood collection system and jugular venipuncture. […] Plasma mannoheptulose concentrations are measured using high-performance liquid chromatography tandem mass spectrometry as described herein below.
A one-compartment model is used to calculate mannoheptulose pharmacokinetics based on plasma mannoheptulose levels following once daily oral administration of mannoheptulose in a nutritionally-balanced composition (PV(t)). […] Area under each plasma mannoheptulose curve is determined using a one-way, repeated measures analysis of variance (GraphPad Prism version 4.00 for Windows).
High performance liquid chromatography tandem mass spectrometry (HPLC/MS/MS) is utilized to determine the amount of mannoheptulose present in the plasma of adult dogs. […] Detection and quantitation is by mass spectrometry (MS) operating under multiple reaction monitoring MS/MS conditions. Concentrations of D-mannoheptulose in dog plasma can be quantitated from approximately 20 to 5000 ng/mL. […]

[8] = Pharmacokinetics, twice daily mannoheptulose in composition fed to older Labrador Retrievers; format: in vivo, Labrador Retriever dogs
Experimental: The pharmacokinetics of mannoheptulose can be determined in ten adult, female Labrador Retriever dogs fed a nutritionally-balanced composition providing mannoheptulose at levels of 0 or 2 mg/kg of body weight of the dog. Mannoheptulose is provided as avocado extract in the 2 mg/kg diet. The mean age of the dogs is 7.1 years and the age ranges from 5.3 to 8.4 years. Dogs are age-matched across the two composition groups. The average body weight of all dogs is 29 kg and ranges from 25 to 35 kg. The 0 mg/kg composition is fed as a nutritionally-balanced control composition (Eukanuba Senior Maintenance Formula) and it contains no mannoheptulose, avocado extract or avocado meal. The 2 mg/kg composition is the nutritionally-balanced control composition formulated to contain avocado extract to provide mannoheptulose at a dose of 2 mg/kg of body weight of the dog. The amount of composition offered to the dogs is based on feeding guidelines for the control composition and the target weight range and body condition of the dogs. Dogs are fed one-half their daily allotment of composition at 0730 and the remaining half at 1330. Dogs 1, 2, 3, 4 and 5 are fed the composition containing 2 mg/kg mannoheptulose and dogs 6, 7, 8, 9 and 10 are fed the composition containing 0 mg/kg mannoheptulose. Pharmacokinetics of mannoheptulose following twice daily administration of mannoheptulose in a nutritionally-balanced composition is determined by collecting serial blood samples (3 mL) from each dog using a Vacutainer blood collection system and jugular venipuncture. […] Plasma mannoheptulose concentrations are measured using high-performance liquid chromatography tandem mass spectrometry as described herein below.
A one-compartment model is used to calculate mannoheptulose pharmacokinetics based on plasma mannoheptulose levels following twice daily oral administration of mannoheptulose in a nutritionally-balanced composition (PV(t)). The model is: PV(t)=dose/(a·BW)e^−kt where: a=mannoheptulose pool size (dose/(enrichment at t0)), BW=body weight, k=rate constant of elimination (ln Et−ln E0)/−t, and t=time.
High performance liquid chromatography tandem mass spectrometry (HPLC/MS/MS) is utilized to determine the amount of mannoheptulose present in the plasma of adult dogs. […] Detection and quantitation is by mass spectrometry (MS) operating under multiple reaction monitoring MS/MS conditions. Concentrations of D-mannoheptulose in dog plasma can be quantitated from approximately 20 to 5000 ng/mL. […] Specimen concentrations are determined by back-calculation using a weighted (1/x^2) linear regression of a calibration curve generated from prepared D-mannoheptulose calibration standards. […]

[9] = doses of 10 grams, humans, orally; cited from earlier work
[10] = injected, rats, cited from earlier work

Structure (SMILES): O=P(O)(O)OC[C@H]1OC[C@H](O)[C@@H](O)[C@@H]1O [1,5-anhydro-D-glucitol-6-phosphate]
- inhibition of hexokinase [1]: allosteric (non-competitive) inhibitor

Structure (SMILES): OC[C@H]1O[C@H](CO)[C@@H](O)[C@@H]1O [2,5-Anhydro-D-mannitol, 2,5-anhydro-D-mannitol]
- effect on glucose formation and utilization [2]: interfere in glucose formation and utilization

Structure (SMILES): O=CC[C@@H](O)[C@H](O)[C@H](O)CO [2-deoxy-D-glucose]
- metabolic hallmarks of caloric restriction [3]: reduced body temperature, weight loss, and lower fasting insulin levels

Structure (SMILES): CO[C@@H]([C@H](O)[C@H](O)CO)[C@@H](O)C=O [3-O-methylglucose]
- responses relative to 2-deoxyglucose ([4]; administration in rats): about seven times weaker
- metabolism ([4]; in contrast with 2-deoxy-D-glucose): not metabolized

Structure (SMILES): O=C[C@H](O)[C@@H](O)[C@H](O)[C@H](S)CO [5-Thioglucose, 5-thio-D-glucose]
- injected 5-thioglucose excreted unchanged in urine [5]: 97%

Structure (SMILES): O=C(CO)[C@@H](O)[C@@H](O)[C@H](O)[C@H](O)CO [mannoheptulose]
- body weight [6]: slightly reduced body weight
- plasma insulin levels [6]: reduced plasma insulin levels
- plasma level response to dietary mannoheptulose level ([7]; 0, 1, 2 mg/kg): dose-dependent
- time of return of plasma mannoheptulose to non-detectable levels ([7]; after consumption of the single daily meal): ≤ 24 h
- plasma kinetics order ([7]; once daily oral, 1 or 2 mg/kg): first order kinetics
- time to second peak in plasma mannoheptulose ([8]; after feeding the afternoon meal, 2 mg/kg in two equal meals): 4 h
- time to peak plasma mannoheptulose level ([8]; after initial (morning) feeding, 2 mg/kg in two equal meals): 4 h
- plasma kinetics order ([8]; twice daily oral, 2 mg/kg): first order kinetics
- half-life ([8]; twice daily, 2 mg/kg, after the afternoon meal): 5.63 h
- safety of oral dosing [9]: safely administered
- remained in the body ([10]; a day after the injection): 5%
- excreted unchanged [10]: 66%
- metabolized [10]: 29%
